According to BindingDB's records for patent US11111252 (Duquesne University of The Holy Spirit, 2021):

Target: T1, Dihydrofolate reductase (Pneumocystis jirovecii, UniProt Q9UUP5)
T1 sequence (Q9UUP5 whole entry): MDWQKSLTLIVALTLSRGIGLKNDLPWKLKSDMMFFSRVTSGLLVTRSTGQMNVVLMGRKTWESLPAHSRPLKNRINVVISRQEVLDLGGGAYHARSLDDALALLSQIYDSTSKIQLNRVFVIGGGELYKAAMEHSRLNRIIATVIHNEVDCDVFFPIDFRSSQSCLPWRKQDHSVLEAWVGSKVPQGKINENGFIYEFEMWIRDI
Assay: Kinase Inhibition Assay

SMILES	IC50 [µM]
COc1ccc(Sc2sc3nc(N)nc(N)c3c2C)cc1OC [US11111252, Compound 1]	0.26
COc1ccc(Sc2c(C)c3c(N)nc(N)nc3n2C)cc1OC [US11111252, Compound 9]	0.234
